According to ChEMBL document CHEMBL3886714, “Substituted 4-pyridones and their use as inhibitors of neutrophil elastase activity” (2016):
pIC50: −log10 of the molar value.

Target: T1, Neutrophil elastase (Homo sapiens, UniProt P08246)
T1 sequence (P08246 whole entry): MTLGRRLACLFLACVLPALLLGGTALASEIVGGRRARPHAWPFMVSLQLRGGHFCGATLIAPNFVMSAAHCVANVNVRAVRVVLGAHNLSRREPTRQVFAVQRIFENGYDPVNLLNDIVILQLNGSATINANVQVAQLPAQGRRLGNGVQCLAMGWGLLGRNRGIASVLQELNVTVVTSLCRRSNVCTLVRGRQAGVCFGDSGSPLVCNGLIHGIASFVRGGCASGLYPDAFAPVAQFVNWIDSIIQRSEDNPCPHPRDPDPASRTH
Experiment: Human Neutrophil Elastase Assay: Compound buffer: 100 mM Tris, 500 mM NaCl, adjusted to pH 7.5; Assay buffer: 100 mM Tris, 500 mM NaCl, adjusted to pH 7.5, containing 0.01% BSA. Test compounds were prediluted in DMSO and subsequently in compound buffer (5% DMSO final). […] After inactivation of the enzyme, fluorescence intensities were measured at 380 nm excitation and 460 nm emission wavelengths.

Row | pIC50 | SMILES
1 | 7.55 | Cc1c(-c2cccc(C(F)(F)F)c2)c(=O)c(C(=O)NCc2ccc(S(C)(=O)=O)s2)cn1C(C)C
2 | 7.57 | Cc1c(-c2cccc(C(F)F)c2)c(=O)c(C(=O)NCc2ccc(S(C)(=O)=O)cc2)cn1C1CCOC1 (configuration not stated)
